From patent US12472210B2 (priority 2019, dated 2025)
“And” between values parts separate entries of the source, which are not always exact repeats. Identical values can stand only once. Like-named read-outs stand apart in the source and are kept apart here.

Columns and labels:
[1] = test system: subcutaneously transplanted human liver cancer LM3 tumor; parameters: species or system BALB/c nude mice; details: mouse, in vivo
[2] = test system: subcutaneously transplanted human liver cancer LM3 tumor; parameters: species or system BALB/c nude mice; details: mouse, in vivo, ip
[3] = mouse, in vivo
[4] = mouse, in vivo, ip

## O=P1(N(CCCl)CCCl)NCCCO1 (centres unmarked) [cyclophosphamide]
[1]
  Tumor inhibition rate (%): 79.33% and 79.33 ± 0.10%
  Tumor weight: 0.21 ± 0.10 g
[2]; 10 mg/kg
  Tumor inhibition rate (%): 33.21% and 33.21 ± 1.41%
  Tumor weight: 0.50 ± 0.02 g
[2]; 20 mg/kg
  Tumor inhibition rate (%): 62.67% and 62.67 ± 5.81%
  Tumor weight: 0.28 ± 0.06 g
[3]
  Spleen quality: 0.12 ± 0.02 g
  body weight at the end of the experiment: 18.91 ± 0.46 g
[4]; 10 mg/kg
  Spleen index: 1.08 ± 0.12 mg/g
  Spleen quality: 0.19 ± 0.01 g
  body weight at the end of the experiment: 18.58 ± 0.41 g
[4]; 20 mg/kg
  Spleen index: 1.01 ± 0.08 mg/g
  Spleen quality: 0.17 ± 0.01 g
  body weight at the end of the experiment: 17.54 ± 0.28 g
